These are literature values, as cited in PMC5742115, “Pharmacophore Modeling and in Silico/in Vitro Screening for Human Cytochrome P450 11B1 and Cytochrome P450 11B2 Inhibitors” (Frontiers in Chemistry, 2017).

A word on the IC50: it is the concentration that inhibits the measured activity by half.

One series has as its system CYP11B2. Conditions: reported activity, supplementary Table 1, read-out: CYP11B2 IC50, cited from earlier work.
The next series relates to CYP11B1. Conditions: reported activity, supplementary Table 1, read-out: CYP11B1 IC50, cited from earlier work.

Read-outs that look alike come from different tables or passages of the source.

On to `Cc1cncn1Cc1ccc(C#N)cc1` [CHEMBL162496], for which the IC50 in the series on CYP11B2 (ref Roumen et al., 2010) is 12 nM; in the series with CYP11B1 (ref Roumen et al., 2010), 141 nM.
`Brc1ccc2c(c1)CC/C2=C\c1cccnc1` [CHEMBL194440]: the IC50 was 171 nM with CYP11B2 (ref Ulmschneider et al., 2005a) and 320 nM with CYP11B1 (ref Ulmschneider et al., 2005a).
`OC1CCc2cc(-c3cccnc3)ccc2C1` (centres unmarked) [CHEMBL461458]: the IC50 in the series on CYP11B2 (ref Lucas et al., 2008b) is 44 nM; in the series on CYP11B1 (ref Lucas et al., 2008b), 4920 nM.
Turning to `COc1ccc2c(c1)CCC/C2=C\c1cccnc1` [CHEMBL362441], the IC50 in the series with CYP11B2 (ref Ulmschneider et al., 2005a) was 57 nM; in the series with CYP11B1 (ref Ulmschneider et al., 2005a) it was 903 nM.
As to `Fc1ccccc1-c1ccc(Cn2ccnc2)cn1` [CHEMBL2011244], the IC50 is 1740 nM with CYP11B2 (ref Hille et al., 2011a) and 72 nM in the series with CYP11B1 (ref Hille et al., 2011a).
With `O=C1CCc2cc(Cc3cccnc3)cc3c2N1CC3` [CHEMBL2312965], the IC50 in the series on CYP11B2 (ref Yin et al., 2013) was 74 nM; with CYP11B1 (ref Yin et al., 2013), 16 nM.
For `O=C1CCc2cc(C(c3ccc(F)cc3)n3ccnc3)cc3c2N1CC3` (centres unmarked) [CHEMBL2163644], the IC50 in the series on CYP11B2 (ref Yin et al., 2012) was 29 nM; in the series with CYP11B1 (ref Yin et al., 2012), 27 nM.
In the case of `COc1ccc2c(c1)CC/C2=C\c1cccnc1` [CHEMBL176609], the IC50 was 34 nM in the series with CYP11B2 (ref Ulmschneider et al., 2005a) and 1450 nM in the series with CYP11B1 (ref Ulmschneider et al., 2005a).
`COc1ccc2cc(-c3cccnc3)c(C)cc2c1` [CHEMBL499871]: the IC50 in the series on CYP11B2 (ref Heim et al., 2008) is 7 nM; in the series with CYP11B1 (ref Heim et al., 2008), 1050 nM.
With `COc1ccc2cc(-c3cccnc3)ccc2c1Br` [CHEMBL196328], the IC50 was 33 nM in the series with CYP11B2 (ref Voets et al., 2005) and 4480 nM in the series with CYP11B1 (ref Voets et al., 2005).
As to `O=C1CCc2cc(-c3cncc(-c4ccc(F)c(F)c4)c3)cc3c2N1CC3` [CHEMBL1765224], the IC50 in the series with CYP11B2 (ref Lucas et al., 2011) was 2.3 nM; with CYP11B1 (ref Lucas et al., 2011) it was 496 nM.
Turning to `Clc1ccc2c(c1)CC/C2=C\c1cccnc1` [CHEMBL383807], the IC50 was 26 nM in the series with CYP11B2 (ref Ulmschneider et al., 2005a) and 1470 nM with CYP11B1 (ref Ulmschneider et al., 2005a).
Take `Fc1ccc2c(c1)CC/C2=C/c1cccc2cnccc12` [CHEMBL363849]: the IC50 in the series on CYP11B2 (ref Ulmschneider et al., 2005b) is 65 nM; with CYP11B1 (ref Ulmschneider et al., 2005b), 26 nM.
`Cc1nnc2n1-c1c(Cl)cc(-c3cnccc3C3CC3)cc1CC2` [CHEMBL2331703]: the IC50 in the series with CYP11B2 (ref Blass, 2013a) is 48 nM; with CYP11B1 (ref Blass, 2013a), 6930 nM.
For the compound `Cc1cc(C#N)ccc1[C@H]1CCc2cncn21` [CHEMBL3099696], the IC50 in the series with CYP11B2 (ref Meredith et al., 2013) is 1.5 nM; in the series on CYP11B1 (ref Meredith et al., 2013), 0.9 nM.
For the compound `O=C1CCc2cc(-c3cncc(-c4ccc(F)cc4)c3)cc3c2N1CC3` [CHEMBL1765222], the half-inhibitory concentration (IC50) is 0.9 nM in the series with CYP11B2 (ref Lucas et al., 2011) and 40 nM with CYP11B1 (ref Lucas et al., 2011).
As for `O=C1CCc2cc(C(c3ccccc3F)n3ccnc3)cc3c2N1CC3` (centres unmarked) [CHEMBL2163642], the IC50 with CYP11B2 (ref Yin et al., 2012) is 19 nM; with CYP11B1 (ref Yin et al., 2012) it was 40 nM.
Turning to `O=C1CCc2cc(C(C3CCC3)n3ccnc3)cc3c2N1CC3` (centres unmarked) [CHEMBL2163640], the IC50 with CYP11B2 (ref Yin et al., 2012) was 4.2 nM; in the series with CYP11B1 (ref Yin et al., 2012), 3.4 nM.
For `O=C1CCc2cc(-c3cccnc3)cc3c2N1CC3` [CHEMBL1765205], the IC50 with CYP11B2 (ref Lucas et al., 2011) was 1.1 nM; in the series with CYP11B1 (ref Lucas et al., 2011), 715 nM.
Take `N#Cc1ccc(Cn2cncc2C=O)cc1` [CHEMBL611680]: the 50% inhibitory concentration (IC50) in the series on CYP11B2 (ref Roumen et al., 2010) was 62 nM; in the series with CYP11B1 (ref Roumen et al., 2010), 478 nM.
On to `Clc1cccc2c1CC/C2=C/c1cccnc1` [CHEMBL369623], for which the IC50 with CYP11B2 (ref Ulmschneider et al., 2005a) is 31 nM; in the series on CYP11B1 (ref Ulmschneider et al., 2005a) it was 657 nM.
Turning to `O=C1CSc2cc(-c3cccnc3)ccc2N1` [CHEMBL509971], the IC50 in the series on CYP11B2 (ref Lucas et al., 2008b) was 12 nM; in the series on CYP11B1 (ref Lucas et al., 2008b) it was 525 nM.
On to `CC(c1ccc(-c2ccsc2)nc1)n1ccnc1` (centres unmarked) [CHEMBL2417625], for which the IC50 is 151 nM in the series with CYP11B2 (ref Emmerich et al., 2013) and 21 nM in the series on CYP11B1 (ref Emmerich et al., 2013).
Consider `COc1cncc(Cc2ccc(-c3ccccc3)nc2)c1` [CHEMBL2417614], for which the IC50 was 25 nM with CYP11B2 (ref Emmerich et al., 2013) and 5 nM with CYP11B1 (ref Emmerich et al., 2013).
Consider `COc1ccc(C(c2ccncc2)c2cc3c4c(c2)CCN4C(=O)CC3)cc1` (centres unmarked) [CHEMBL2312957], for which the IC50 in the series with CYP11B2 (ref Yin et al., 2013) was 46 nM; in the series on CYP11B1 (ref Yin et al., 2013), 1690 nM.
In the case of `COc1cncc(-c2cc3c4c(c2)CCC(=O)N4CCC3)c1` [CHEMBL1765208], the IC50 in the series on CYP11B2 (ref Lucas et al., 2011) was 0.9 nM; with CYP11B1 (ref Lucas et al., 2011), 545 nM.
As to `CN1C(=O)CCc2cc(-c3cncc4ccccc34)ccc21` [CHEMBL451505], the IC50 with CYP11B2 (ref Lucas et al., 2008b) was 0.1 nM; in the series with CYP11B1 (ref Lucas et al., 2008b), 6.9 nM.
`Fc1ccc2c(c1)CC/C2=C\c1cccc2cnccc12` [CHEMBL370530]: the IC50 in the series with CYP11B2 (ref Ulmschneider et al., 2005b) was 57 nM; with CYP11B1 (ref Ulmschneider et al., 2005b), 58 nM.
As for `c1ccc2cc(-c3cnco3)ccc2c1` [CHEMBL193653], the IC50 with CYP11B2 (ref Voets et al., 2005) is 12 nM; in the series with CYP11B1 (ref Voets et al., 2005) it was 805 nM.
Consider `Brc1ccc2cc(-c3cccnc3)ccc2c1` [CHEMBL193534], for which the IC50 in the series on CYP11B2 (ref Voets et al., 2005) was 15 nM; in the series on CYP11B1 (ref Voets et al., 2005), 2940 nM.
For the compound `Brc1ccc2c(c1)CC/C2=C/c1ccncc1` [CHEMBL179222], the IC50 was 56 nM in the series on CYP11B2 (ref Ulmschneider et al., 2005a) and 484 nM with CYP11B1 (ref Ulmschneider et al., 2005a).
Regarding `Clc1ccc(Cn2cncc2-c2ccccc2)cc1` [CHEMBL597101], the IC50 with CYP11B2 (ref Roumen et al., 2010) was 5.8 nM; in the series with CYP11B1 (ref Roumen et al., 2010) it was 25 nM.
`N#Cc1ccc(Cn2cncc2Br)cc1` [CHEMBL599223]: the IC50 with CYP11B2 (ref Roumen et al., 2010) is 23 nM; with CYP11B1 (ref Roumen et al., 2010), 73 nM.
Turning to `c1ccc(C(Cn2ccnc2)(c2ccccc2)c2ccccc2)cc1` [CHEMBL1651508], the IC50 in the series with CYP11B2 (ref Hille et al., 2011b) was 8 nM; in the series on CYP11B1 (ref Hille et al., 2011b) it was 4 nM.
As to `c1ccc(C(CCn2ccnc2)(c2ccccc2)c2ccccc2)cc1` [CHEMBL1651509], the IC50 in the series with CYP11B2 (ref Hille et al., 2011b) is 290 nM; in the series with CYP11B1 (ref Hille et al., 2011b), 80 nM.
Regarding `c1ccc(C(c2ccccc2)(c2ccccc2)n2ccnc2)cc1` [CHEMBL1651507], the IC50 is 11 nM in the series on CYP11B2 (ref Hille et al., 2011b) and 3 nM in the series on CYP11B1 (ref Hille et al., 2011b).
Take `CC(C)C(c1cc2c3c(c1)CCN3C(=O)CC2)n1ccnc1` (centres unmarked) [CHEMBL2163638]: the IC50 with CYP11B2 (ref Yin et al., 2012) is 1.4 nM; with CYP11B1 (ref Yin et al., 2012) it was 3.8 nM.
`O=C1CCc2cc(C(c3ccco3)n3ccnc3)cc3c2N1CC3` (centres unmarked) [CHEMBL2163650]: the IC50 in the series on CYP11B2 (ref Yin et al., 2012) is 47 nM; in the series on CYP11B1 (ref Yin et al., 2012), 20 nM.
For `Clc1ncc(Cn2ccnc2)cc1-c1cccs1` [CHEMBL2011430], the IC50 was 416 nM in the series on CYP11B2 (ref Hille et al., 2011a) and 73 nM in the series with CYP11B1 (ref Hille et al., 2011a).
For the compound `c1cn(CC23CC4CC(CC(C4)C2)C3)cn1` [CHEMBL1651505], the IC50 in the series on CYP11B2 (ref Hille et al., 2011b) is 30 nM; in the series on CYP11B1 (ref Hille et al., 2011b), 5 nM.
As for `OCCCc1cncn1Cc1ccc(F)cc1` [CHEMBL591465], the IC50 with CYP11B2 (ref Roumen et al., 2010) is 16 nM; in the series with CYP11B1 (ref Roumen et al., 2010) it was 116 nM.
For the compound `COc1ccc2cc(-c3cncc4ccccc34)c(C)cc2c1` [CHEMBL525785], the IC50 is 3.1 nM in the series on CYP11B2 (ref Heim et al., 2008) and 843 nM in the series on CYP11B1 (ref Heim et al., 2008).
As for `COc1cncc(-c2cc3c4c(c2)CCN4C(=O)CC3)c1` [CHEMBL1765207], the IC50 in the series with CYP11B2 (ref Lucas et al., 2011) was 0.6 nM; in the series with CYP11B1 (ref Lucas et al., 2011), 247 nM.
As to `O=C1CCc2cc(-c3cncc4ccccc34)cc3c2N1CC3` [CHEMBL1765214], the half-inhibitory concentration (IC50) in the series on CYP11B2 (ref Lucas et al., 2011) is 0.2 nM; in the series with CYP11B1 (ref Lucas et al., 2011) it was 13 nM.
For the compound `COc1ccc2c(c1)CC(C)C(c1cncc3ccccc13)=C2` (centres unmarked) [CHEMBL499044], the IC50 in the series on CYP11B2 (ref Heim et al., 2008) is 0.5 nM; in the series with CYP11B1 (ref Heim et al., 2008), 64 nM.
For the compound `COc1cncc(C2=Cc3ccc(OC)cc3CC2C)c1` (centres unmarked) [CHEMBL500145], the IC50 is 1.2 nM in the series on CYP11B2 (ref Heim et al., 2008) and 100 nM in the series with CYP11B1 (ref Heim et al., 2008).
For `COC(=O)Cc1cncc(-c2ccc3cc(OC)ccc3c2)c1` [CHEMBL526339], the IC50 in the series on CYP11B2 (ref Heim et al., 2008) is 6.9 nM; in the series with CYP11B1 (ref Heim et al., 2008), 199 nM.
For the compound `O=C1CCc2cc(C(c3ccncc3)c3cccc(Cl)c3)cc3c2N1CC3` (centres unmarked) [CHEMBL2312960], the IC50 with CYP11B2 (ref Yin et al., 2013) was 51 nM; in the series on CYP11B1 (ref Yin et al., 2013), 646 nM.
Turning to `C(=C1\CCc2ccccc21)/c1c[nH]cn1` [CHEMBL178036], the IC50 in the series on CYP11B2 (ref Ulmschneider et al., 2005b) was 11 nM; in the series on CYP11B1 (ref Ulmschneider et al., 2005b) it was 6.1 nM.
